# According to patent publication US20140057895A1, “INDAZOLE- AND PYRROLOPYRIDINE-DERIVATIVE AND PHARMACEUTICAL USE THEREOF” (priority 2011, published 2014):
# Tests used:
# [1] = target: T1, Human 5-HT4 receptor (5-HT4b) (Homo sapiens, UniProt Q13639); assay: Test Example 3: Human 5-HT4 receptor binding assay, membranes of CHO-K1 cells stably expressing 5-HT4b receptors (Table 99); conditions: mean value of each group
# T1 construct: expressed in transfected cells; membrane preparation
# Experimental: To an assay tube were added 0.1 nM [^3H]-GR113808 {chemical name: [1-[2-(methylsulfonylamino) ethyl]-4-piperidinyl]methyl 1-methylindole-3-carboxylate}, receptor membrane preparations, and Hepes buffer (50 mM, pH 7.4, 4° C., 1 ml) containing test compounds or 30 μM serotonin; and the mixture was incubated at 37° C. for 30 minutes. On quenching the reaction, the mixture was rapidly filtered on whatman GF/B filter, which was presoaked in 0.1% polyethyleneimine for 1 hour, by using Brandel cell Harvester, and washed with ice-cooled 50 mM Tris-HCl (pH 7.7, 4 ml) three times. To the filter after filtration was added a liquid scintillator (Ecoscint), and then a radioactivity was determined by a liquid scintillation counter.
# 50% Inhibition concentrations (IC50) were determined from inhibition rates of test compounds to specific bindings which were obtained by subtracting nonspecific bindings from total binding amounts of [^3H]-GR113808.
# Human 5-HT4 receptor membrane preparations were prepared from CHO-K^1 cells which stably express 5-HT4b receptors, and human 5-HT4 receptor binding assay was carried out in a similar manner as in the guinea pig 5-HT4 receptor binding assay. The following tables show results of serotonin 4 (5-HT4) receptor binding assay. In the following tables, the compounds used in the test are shown in numbers which correspond to the Example numbers above where the preparations of the compounds are described.
# human 5-HT4b receptor = target: T2, human 5-HT4b receptor (Homo sapiens, UniProt Q13639); assay: Test Example 4: Serotonin 4 (5-HT4) receptor agonist activity assay, cAMP HTRF in CHO cells (Table 100); assay type: cell-based; conditions: mean value; for Emax: CHO, 0.25 h, intrinsic activity, maximal activity of 5-HT defined as 100%, read-out: IA (%); for EC50: concentration showing 50% of IA
# T2 construct: expressed in transfected cells; host or cells: CHO cells (G418 selection)
# T2 sequence (Q13639 whole entry): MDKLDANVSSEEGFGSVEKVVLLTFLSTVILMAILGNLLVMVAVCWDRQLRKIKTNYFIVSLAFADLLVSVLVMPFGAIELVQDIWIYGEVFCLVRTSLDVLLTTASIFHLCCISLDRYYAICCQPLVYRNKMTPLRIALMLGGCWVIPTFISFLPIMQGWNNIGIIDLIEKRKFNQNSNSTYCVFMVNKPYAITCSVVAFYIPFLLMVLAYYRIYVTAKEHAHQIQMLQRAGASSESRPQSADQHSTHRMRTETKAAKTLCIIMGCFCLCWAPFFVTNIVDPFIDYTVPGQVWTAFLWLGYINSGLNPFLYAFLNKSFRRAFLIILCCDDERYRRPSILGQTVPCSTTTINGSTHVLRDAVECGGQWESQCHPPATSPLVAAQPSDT
# Outline: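 Read-out is HTRF cAMP (time-resolved fluorescence 620/665 nm after 1 h RT with cAMP-cryptate and cAMP-d2), from recombinant CHO cells bearing human 5-HT4b treated with compound 15 min at 31° C. in Hanks/HEPES buffer pH 7.4. IA (%) scaled to peak 5-HT effect over 10^−11–10^−7 M; EC50 is concentration giving half that IA.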
# T1 sequence (Q13639 whole entry): as above
Compound,IC50 [1],Emax (human 5-HT4b receptor),EC50 (human 5-HT4b receptor)
"CC(C)c1nn(-c2noc(C3CC(NCC4CCOCC4)C3)n2)c2c(F)cccc12 (stereo not shown) [Example 610, 3-{3-[7-fluoro-3-(propan-2-yl)-1H-indazol-1-yl]-1,2,4-oxadiazol-5-yl}-N-(tetrahydro-2H-pyran-4-ylmethyl)cyclobutanamine]",< 20 nM,103%,9.1 nM
"CC(C)c1nn(-c2noc(C[C@@H]3CCN(CC4CN(S(C)(=O)=O)C4)C3)n2)c2c(F)cccc12 [Example 514, 7-fluoro-1-(5-{[(3S)-1-{[1-(methylsulfonyl)azetidin-3-yl]methyl}pyrrolidin-3-yl]methyl}-1,2,4-oxadiazol-3-yl)-3-(propan-2-yl)-1H-indazole]",< 20 nM,70%,12 nM
"CC(C)c1nn(-c2noc(C[C@@H]3CCN(C[C@@H]4CCCN4S(C)(=O)=O)C3)n2)c2c(F)cccc12 [Example 510, 7-fluoro-1-(5-{[(3S)-1-{[(2S)-1-(methylsulfonyl)pyrrolidin-2-yl]methyl}pyrrolidin-3-yl]methyl}-1,2,4-oxadiazol-3-yl)-3-(propan-2-yl)-1H-indazole]",< 20 nM,46%,2.7 nM
CC(=O)N1CC[C@@H](CN2CC[C@@H](Cc3nc(-n4nc(C(C)C)c5cccc(F)c54)no3)C2)C1 [Example 515],< 20 nM,70%,8.5 nM
"CC(C)c1nn(-c2noc([C@H]3C[C@@H](NCC4CCCO4)C3)n2)c2c(F)cccc12 (relative stereo) [Example 596, cis-3-{3-[7-fluoro-3-(propan-2-yl)-1H-indazol-1-yl]-1,2,4-oxadiazol-5-yl}-N-(tetrahydrofuran-2-ylmethyl)cyclobutanamine]",< 20 nM,82%,4.1 nM
"CC(C)c1nn(-c2noc(C3CC(NCC4CCOC4)C3)n2)c2c(F)cccc12 (stereo not shown) [Example 608, 3-{3-[7-fluoro-3-(propan-2-yl)-1H-indazol-1-yl]-1,2,4-oxadiazol-5-yl}-N-(tetrahydrofuran-3-ylmethyl)cyclobutanamine]",< 20 nM,,
"COCCCNC1CC(c2nc(-n3nc(C(C)C)c4cccc(F)c43)no2)C1 (stereo not shown) [Example 609, 3-{3-[7-fluoro-3-(propan-2-yl)-1H-indazol-1-yl]-1,2,4-oxadiazol-5-yl}-N-(3-methoxypropyl)cyclobutanamine]",< 20 nM,,
"CC(C)c1nn(-c2noc([C@H]3C[C@@H](NCCC4CCCCO4)C3)n2)c2c(F)cccc12 (relative stereo) [Example 597, cis-3-{3-[7-fluoro-3-(propan-2-yl)-1H-indazol-1-yl]-1,2,4-oxadiazol-5-yl}-N-[2-(tetrahydro-2H-pyran-2-yl)ethyl]cyclobutanamine]",26.9 nM,,
"COCCN(CC1CCOCC1)C1CC(c2nc(-n3nc(C(C)C)c4cccc(F)c43)no2)C1 (stereo not shown) [Example 613, 3-{3-[7-fluoro-3-(propan-2-yl)-1H-indazol-1-yl]-1,2,4-oxadiazol-5-yl}-N-(2-methoxyethyl)-N-{tetrahydro-2H-pyran-4-ylmethyl)cyclobutanamine]",< 20 nM,,
"CC(C)c1nn(-c2noc(C3CCN(C(C)(C)C(=O)OC(C)(C)C)CC3)n2)c2c(F)cccc12 [Example 400, tert-butyl 2-(4-{3-[7-fluoro-3-(propan-2-yl)-1H-indazol-1-yl]-1,2,4-oxadiazol-5-yl}piperidin-1-yl)-2-methylpropanoate]",225 nM,,
"CC(C)c1nn(-c2noc(C3CC(NCCC4CCCOC4)C3)n2)c2c(F)cccc12 (stereo not shown) [Example 604, 3-{3-[7-fluoro-3-(propan-2-yl)-1H-indazol-1-yl]-1,2,4-oxadiazol-5-yl}-N-[2-(tetrahydro-2H-pyran-3-yl)ethyl]cyclobutanamine]",< 20 nM,,

# More lines, now with the values ahead:
IC50 [1],Emax (human 5-HT4b receptor),EC50 (human 5-HT4b receptor),Compound
42.4 nM,104%,5.7 nM,"CC(C)c1nn(-c2noc(C3CCN(C4C5CCC4CN(C(=O)CO)C5)CC3)n2)c2c(F)cccc12 (stereo not drawn) [Example 534, 1-[(8-anti)-8-(4-(3-[7-fluoro-3-(propan-2-yl)-1H-indazol-1-yl]-1,2,4-oxadiazol-5-yl}piperidin-1-yl)-3-azabicyclo[3.2.1]oct-3-yl]-2-hydroxyethanone]"
< 20 nM,90%,3.3 nM,"CC(C)c1nn(-c2noc(C[C@H]3CCN(CC4CN(C(=O)CO)C4)C3)n2)c2c(F)cccc12 [Example 542, 1-(3-{[(3R)-3-({3-[7-fluoro-3-(propan-2-yl)-1H-indazol-1-yl]-1,2,4-oxadiazol-5-yl}methyl)pyrrolidin-1-yl]methyl}azetidin-1-yl)-2-hydroxyethanone]"
< 20 nM,95%,11.4 nM,"CC(C)c1nn(-c2noc(C3CCN(C4CCN(C(=O)CO)CC4(C)C)CC3)n2)c2c(F)cccc12 (stereo not shown) [Example 531, 1-(4-{3-[7-fluoro-3-(propan-2-yl)-1H-indazol-1-yl]-1,2,4-oxadiazol-5-yl}-3′,3′-dimethyl-1,4′-bipiperidin-1′-yl)-2-hydroxyethanone]"
< 20 nM,75%,1.5 nM,"CCc1nn(-c2noc(C3CCN(C4(C)CCN(C(=O)N(C)C)CC4)CC3)n2)c2c(F)cccc12 [Example 493, 4-[3-(3-ethyl-7-fluoro-1H-indazol-1-yl)-1,2,4-oxadiazol-5-yl]-N,N,4′-trimethyl-1,4′-bipiperidine-1′-carboxamide]"
< 20 nM,32%,6.2 nM,"CC(C)c1nn(-c2noc([C@H]3CC[C@@H](NCC4CCN(S(C)(=O)=O)CC4)CC3)n2)c2c(F)cccc12 [Example 618, cis-4-{3-[7-fluoro-3-(propan-2-yl)-1H-indazol-1-yl]-1,2,4-oxadiazol-5-yl}-N-{[1-(methylsulfonyl)piperidin-4-yl]methyl}cyclohexanamine]"
< 20 nM,121%,17.3 nM,"CCC(C)c1nn(-c2noc(C3CCN(C4CCN(C(=O)CO)CC4)CC3)n2)c2c(F)cccc12 (stereo not shown) [Example 528, 1-(4-{3-[3-(butan-2-yl)-7-fluoro-1H-indazol-1-yl]-1,2,4-oxadiazol-5-yl}-1,4′-bipiperidin-1′-yl)-2-hydroxyethanone]"
< 20 nM,114%,5.7 nM,"O=C(CO)N1CCC(N2CCC(c3nc(-n4nc(C5CCC5)c5cccc(F)c54)no3)CC2)CC1 [Example 527, 1-{4-[3-(3-cyclobutyl-7-fluoro-1H-indazol-1-yl)-1,2,4-oxadiazol-5-yl]-1,4′-bipiperidin-1′-yl}-2-hydroxyethanone]"
136 nM,,,"Cc1cccc2c1c(C(C)C)nn2-c1noc(C2CCN(C3CCC3)CC2)n1 [Example 423, 1-[5-(1-cyclobutylpiperidin-4-yl)-1,2,4-oxadiazol-3-yl]-4-methyl-3-(propan-2-yl)-1H-indazole]"
96.8 nM,,,"CC(C)c1nn(-c2noc(C3CCN(C4CCS(=O)(=O)CC4)CC3)n2)c2c(F)cccc12 [Example 444, 1-{5-[1-(1,1-dioxidotetrahydro-2H-thiopyran-4-yl)piperidin-4-yl]-1,2,4-oxadiazol-3-yl}-7-fluoro-3-(propan-2-yl)-1H-indazole]"
27.4 nM,,,CC(=O)N1CCC(N2CC(Cc3nc(-n4nc(C(C)C)c5cccc(F)c54)no3)C2)CC1 [Example 416]
< 20 nM,,,"CC(C)c1nn(-c2noc(C3CC(NCC4CCCCO4)C3)n2)c2c(F)cccc12 (stereo not shown) [Example 602, 3-{3-[7-fluoro-3-(propan-2-yl)-1H-indazol-1-yl]-1,2,4-oxadiazol-5-yl}-N-(tetrahydro-2H-pyran-2-ylmethyl)cyclobutanamine]"
